Read-outs that look alike come from different tables or passages of the source. Each block holds one compound with its values, some of them ahead of it.
Tests used:
human GHSR = human GHSR (Homo sapiens (Human), UniProt Q92847); experiment: Human GHSR agonist activity, FLIPR calcium fluorescence in human GHSR/CHO stable cell line; format: cell-based
Description: This method was used to determine the agonism effect of the compound of the invention on the activity of human GHSR protein expressed in human GHSR/CHO stable cell line.
Preparation of buffer: HBSS (1X):HEPES (1M)=49:1, containing 0.5% BSA.
Cells of human GHSR/CHO stable cell line were inoculated into a 384-well plate, and incubated overnight. Then, the cell plate was removed, and the medium was discarded. 20 uL buffer as slowly added to each well, and then 20 uL 2X Fluo-4 Direct™ No-wash Loading Buffer was added to each well. The cell plate was incubated in an incubator at 37° C. and 5% CO2 for 50 min, and then removed and allowed to stand at room temperature for 10 min. 30 uL buffer was added to each well in the compound plate; and a buffer plate was additionally prepared and 30 uL buffer was added to each well. Test for agonism of compound: An FLIPR instrument and running software were used. 10 uL buffer was transferred to the cell plate and the value of fluorescence signal was read. 10 uL compound was transferred to the cell plate and the value of fluorescence signal was read. An FLIPR program was used to calculate the difference between the maximum value and the minimum value from the 91st signal point to the 230th signal point. The EC50 value of the compound can be calculated by software from fluorescence values corresponding to various concentrations.

growth hormone (GH) = experiment: In-vivo pharmacodynamic test in rats: plasma GH level by ELISA after oral administration; set-up: species or system Sprague-Dawley (SD) rats; conditions: for GH concentration in rats: male SD rats, oral, 4 mpk in 10% HS15
in vitro = conditions: human; for Papp B→A at 2 h, 2 μM: Caco-2, pH 7.4, Mean Papp B to A
[1] = Metabolism (pharmacokinetic) test in rats, oral gavage
Caco-2 cells [2] = conditions: human, Caco-2, 2 h, 2 μM, pH 7.4
Caco-2 cells [3] = experiment: Caco-2 cell transport assay (bidirectional); conditions: Table 3-1, Caco-2, 2.00 μM
[4] = Subacute toxicity test in rats (14 days oral, 14 days recovery); format: in vivo, Sprague-Dawley (SD) rats
Description: Male Sprague-Dawley (SD) rats (180-220 g) were purchased from Liaoning Changsheng Biotechnology Co., Ltd. (Liaoning, China). All animals were kept in a temperature-controlled room (22±2° C.) with a relative humidity of 55±15% and a 12/12-h light/dark period (the light was turned off at 8:00 pm), with 3 animals in each cage. Animals were adapted to the environment for 1 week after arrival, and allowed to free access to indicated feed and sterilized water, and the padding in the animal cage was changed twice a week.
The compound of the present invention was prepared in 10% HS15.
Multiple doses (30 mpk, 100 mpk and 300 mpk) of the compound of the present invention were orally administered to rats. The compound was administered once a day for consecutive 14 days. The rats were weighed twice a week. […] Compound 5 was given by oral gavage for consecutive 14 days and then recovered for 2 weeks.

[5] = Caco-2 cell transport assay (bidirectional); conditions: human, Caco-2, 2.00 μM; for efflux ratio at 2 h, 2 μM: Caco-2, pH 7.4, Efflux Ratio; for Papp A→B at 2 h, 2 μM: Caco-2, pH 7.4, Mean Papp A to B; for Papp A→B at 2 h, 2 μM / Papp B→A at 2 h, 2 μM: pH 7.40; for Papp B→A at 2 h, 2 μM: Caco-2, pH 7.4, Mean Papp B to A
[6] = time point 0 min (basic sampling before dosing)
[7] = oral gavage 30, 100, 300 mpk once a day for 14 days, 2 weeks recovery
[8] = rats, single oral gavage, 1 mg/mL, 3 mL/kg, active ingredient ibutamoren measured in whole blood

human GHSR, sequence (Q92847 whole entry): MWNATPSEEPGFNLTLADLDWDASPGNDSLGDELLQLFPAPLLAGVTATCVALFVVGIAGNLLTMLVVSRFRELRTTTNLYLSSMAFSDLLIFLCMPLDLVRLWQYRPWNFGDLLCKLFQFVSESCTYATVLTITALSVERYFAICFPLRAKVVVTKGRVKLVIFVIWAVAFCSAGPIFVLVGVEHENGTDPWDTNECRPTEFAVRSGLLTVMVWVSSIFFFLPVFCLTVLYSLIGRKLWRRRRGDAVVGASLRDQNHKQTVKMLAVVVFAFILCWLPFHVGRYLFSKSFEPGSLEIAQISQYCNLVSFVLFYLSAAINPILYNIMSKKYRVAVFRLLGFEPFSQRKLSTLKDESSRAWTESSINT

SMILES: CCOP(=O)(OCC)OCOC(=O)NC(C)(C)C(=O)N[C@H](COCc1ccccc1)C(=O)N1CCC2(CC1)CN(S(C)(=O)=O)c1ccccc12 [Compound 10, ((Diethoxyphosphoryl)oxy)methyl (R)-(1-((3-(benzoxy)-1-(1-(methylsulfonyl)spiro[indol-3,4′-piperidin]-1′-yl)-1-oxopropan-2-yl)amino)-2-methyl-1-oxopropan-2-yl)carbamate]
EC50 (human GHSR): 152 nM

SMILES: CC(=O)OC(C)OC(=O)NC(C)(C)C(=O)N[C@H](COCc1ccccc1)C(=O)N1CCC2(CC1)CN(S(C)(=O)=O)c1ccccc12 (stereo partly drawn) [Compound 14, (4R)-7,7-dimethyl-4-(1-(methylsulfonyl)spiro[indol-3,4′-piperidin]-1′-carbonyl)-6,9-dioxo-1-phenyl-2,10-dioxa-5,8-diazadodecan-11-yl Acetate]
EC50 (human GHSR): 47.2 nM
Effect on GH level compared with ibutamoren (in words) (growth hormone (GH); rat, in vivo): significantly better than that of ibutamoren
GH level in the circulation of rats (in words) (growth hormone (GH); rat, in vivo): significantly increased

efflux ratio at 2 h, 2 μM (in vitro; Caco-2, pH 7.4, Efflux Ratio): 189
Papp A→B at 2 h, 2 μM (in vitro; Caco-2, pH 7.4, Mean Papp A to B): 0.198 ×10⁻⁶ cm/s
Papp B→A at 2 h, 2 μM (in vitro): 37.3 ×10⁻⁶ cm/s
SMILES: CC(=O)/C=C(/C)NC(C)(C)C(=O)N[C@H](COCc1ccccc1)C(=O)N1CCC2(CC1)CN(S(C)(=O)=O)c1ccccc12 [Compound 19, (R,Z)-N-(3-(benzoxy)-1-(1-(methylsulfonyl)spiro[indol-3,4′-piperidin]-1′-yl)-1-oxopropan-2-yl)-2-methyl-2-((4-oxopen-2-en-2-yl)amino)propionamide]

AUC(0-inf) ([1]; rat, whole blood, po, 3 mg/kg): 14.3 ± 11 ng·h/mL
AUC(0-t) ([1]; rat, whole blood, po, 3 mg/kg): 6.97 ± 3.27 ng·h/mL
Cmax ([1]; rat, whole blood, po, 3 mg/kg): 3.49 ± 2.81 ng/mL
Tmax ([1]; rat, whole blood, po, 3 mg/kg): 1.06 ± 1.68 h
half-life ([1]; rat, whole blood, po, 3 mg/kg): 9.61 ± 12.1 h
Papp B→A at 2 h, 2 μM (in vitro): 19.5 ×10⁻⁶ cm/s
Mean Papp B to A (Caco-2 cells [2]): 24.1 10^−6 cm/s
SMILES: CC(C)(N)C(=O)N[C@H](COCc1ccccc1)C(=O)N1CCC2(CC1)CN(S(C)(=O)=O)c1ccccc12 [Ibutamoren, reference compound]
GH concentration in rats (growth hormone (GH); [6]): 12.22 ± 9.90 ng/mL

SMILES: CCC(C)C(=O)OC(C)OC(=O)NC(C)(C)C(=O)N[C@H](COCc1ccccc1)C(=O)N1CCC2(CC1)CN(S(C)(=O)=O)c1ccccc12 (stereo partly drawn) [Compound 12, (4R)-7,7-dimethyl-4-(1-(methylsulfonyl)spiro[indol-3,4′-piperidin]-1′-carbonyl)-6,9-dioxo-1-phenyl-2,10-dioxa-5,8-diazadodecan-11-yl 2-methylbutyrate]
EC50 (human GHSR): 35.9 nM

SMILES: CC(OC(=O)NC(C)(C)C(=O)N[C@H](COCc1ccccc1)C(=O)N1CCC2(CC1)CN(S(C)(=O)=O)c1ccccc12)OC(=O)C(C)C (stereo partly drawn) [Compound 5, (4R)-7,7-dimethyl-4-(1-(methylsulfonyl)spiro[indol-3,4′-piperidin]-1′-carbonyl)-6,9-dioxo-1-phenyl-2,10-dioxa-5,8-diazadodecan-11-yl Isobutyrate]
EC50 (human GHSR; human GHSR/CHO stable cell line, Fluo-4 FLIPR): 14.6 nM
GH level in the circulation of rats (in words) (growth hormone (GH); 15 minutes after administration, male rats): significantly increased
GH concentration in rats (growth hormone (GH); [6]): 12.23 ± 10.44 ng/mL
GH concentration in rats (growth hormone (GH); time point 15 min): 51.12 ± 33.98 ng/mL
GH concentration in rats (growth hormone (GH); time point 30 min): 19.07 ± 7.17 ng/mL
GH concentration in rats (growth hormone (GH); time point 60 min): 11.76 ± 4.14 ng/mL
Efflux Ratio (Caco-2 cells [3]): 170
Mean Papp A to B (Caco-2 cells [3]; 2 hrs, pH 7.40): 0.0518 10^−6 cm/s
Mean Papp B to A (Caco-2 cells [3]; 2 hrs, pH 7.40): 8.80 10^−6 cm/s
Subacute toxicity overall finding ([4]; dosage 80 times): no obvious abnormality
Anatomic findings [4, 7]: no anatomic abnormality
Food intake and daily behavior [4, 7]: no significant abnormality
Weight change ([4]; oral gavage 30, 100, 300 mpk once a day for 14 days, 2 weeks recovery (FIG. 1)): no significant difference
Cmax and AUC compared with positive control ibutamoren (in words) ([1]; rats, oral gavage): obviously superior
AUCINF-obs [1, 8]: 23.31 ± 10.81 ng·h/mL
AUClast [1, 8]: 21.61 ± 9.52 ng·h/mL
Cmax [1, 8]: 18.50 ± 13.60 ng/mL
T1/2 [1, 8]: 2.43 ± 0.13 h
Tmax [1, 8]: 0.44 ± 0.49 h

SMILES: CC(OC(=O)NC(C)(C)C(=O)N[C@H](COCc1ccccc1)C(=O)N1CCC2(CC1)CN(S(C)(=O)=O)c1ccccc12)OC(=O)C(C)(C)C (stereo partly drawn) [Compound 20, (4R)-7,7-dimethyl-4-(1-(methylsulfonyl)spiro[indolin-3,4′-piperidin]-1′-carbonyl)-6,9-dioxo-1-phenyl-2,10-dioxa-5,8-diazadodecan-11-yl Pivalate]
EC50 (human GHSR): 37.7 nM

efflux ratio at 2 h, 2 μM ([5]; Table 3-1): 523
efflux ratio at 2 h, 2 μM ([5]; Table 3-2): 300
Papp A→B at 2 h, 2 μM ([5]; Table 3-1): 0.0229 ×10⁻⁶ cm/s
Papp A→B at 2 h, 2 μM ([5]; Table 3-2): 0.0476 ×10⁻⁶ cm/s
Papp B→A at 2 h, 2 μM ([5]; Table 3-1): 12 ×10⁻⁶ cm/s
Papp B→A at 2 h, 2 μM ([5]; Table 3-2): 14.3 ×10⁻⁶ cm/s
SMILES: C[C@H]1O[C@@H](O[C@H]2[C@@H](O)C[C@H](O[C@H]3[C@@H](O)C[C@H](O[C@H]4CC[C@@]5(C)[C@H](CC[C@@H]6[C@@H]5C[C@@H](O)[C@]5(C)[C@@H](C7=CC(=O)OC7)CC[C@]65O)C4)O[C@@H]3C)O[C@@H]2C)C[C@H](O)[C@@H]1O [Digoxin]

Source: patent US20240190875A1, “SPIROINDOLINE DERIVATIVE, AND PREPARATION METHOD AND MEDICAL USE THEREOF” (CHANGCHUN GENESCIENCE PHARMACEUTICAL CO., LTD., priority 2021, published 2024)
